# Results published in ChEMBL document CHEMBL1201862, “PubChem BioAssay data set” (2004).
# Activity calls are given as the source filed them. Cut-off read from the data, not from the text of the source, for most assays here: actives have a measured EC50 and inactives only a lower limit.
# How the values were obtained:
# [1] = molecular target: T1, Heat shock factor protein 1 (Mus musculus, UniProt P38532); experiment: HSF1 potentiators in luciferase reporter cells, confirmation, cell-based, NIH3T3, luminescence, dose retest (AID 435004); assay type: functional;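 note: stress induced by proteasome inhibitor MG132 added 30 min after compound; luciferase reporter driven by HSF1 response element in NIH3T3 cells; actives raise luminescence as potentiators of the MG132 stress response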
# T1 sequence (P38532 whole entry): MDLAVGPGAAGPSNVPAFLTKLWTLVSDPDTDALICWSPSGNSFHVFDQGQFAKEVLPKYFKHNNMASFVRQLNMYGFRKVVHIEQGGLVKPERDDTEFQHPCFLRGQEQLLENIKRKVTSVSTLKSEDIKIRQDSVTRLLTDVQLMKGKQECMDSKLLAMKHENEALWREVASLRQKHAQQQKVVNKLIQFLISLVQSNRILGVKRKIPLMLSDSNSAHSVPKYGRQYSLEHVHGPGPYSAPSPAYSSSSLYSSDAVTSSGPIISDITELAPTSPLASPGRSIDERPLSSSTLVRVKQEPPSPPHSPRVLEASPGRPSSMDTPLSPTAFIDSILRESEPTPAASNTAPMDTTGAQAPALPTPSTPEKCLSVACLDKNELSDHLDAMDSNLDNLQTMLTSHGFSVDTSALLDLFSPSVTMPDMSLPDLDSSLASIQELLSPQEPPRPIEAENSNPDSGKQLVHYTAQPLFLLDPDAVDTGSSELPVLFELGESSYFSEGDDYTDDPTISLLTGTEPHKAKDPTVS
# [2] = molecular target: T2, Corticotropin-releasing factor receptor 2/Corticotropin-releasing factor-binding protein (Homo sapiens, UniProt P24387+Q13324); experiment: activators of CRF receptor 2 with binding protein – uHTS hits, confirmation (AID 602473); assay type: functional; settings: read-out: EC50_Mean
# T2 sequence (Q13324 whole entry): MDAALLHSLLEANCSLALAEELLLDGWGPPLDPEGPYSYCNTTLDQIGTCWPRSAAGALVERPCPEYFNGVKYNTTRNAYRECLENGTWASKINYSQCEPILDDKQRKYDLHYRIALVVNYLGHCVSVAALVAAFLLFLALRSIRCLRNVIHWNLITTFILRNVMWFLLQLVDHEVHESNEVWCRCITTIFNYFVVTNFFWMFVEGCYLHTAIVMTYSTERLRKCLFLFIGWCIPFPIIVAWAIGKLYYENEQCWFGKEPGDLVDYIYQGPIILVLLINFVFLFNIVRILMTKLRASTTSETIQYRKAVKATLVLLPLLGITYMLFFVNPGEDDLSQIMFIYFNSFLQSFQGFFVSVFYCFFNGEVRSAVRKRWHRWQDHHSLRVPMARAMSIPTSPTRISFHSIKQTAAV
# T2 sequence (P24387 whole entry): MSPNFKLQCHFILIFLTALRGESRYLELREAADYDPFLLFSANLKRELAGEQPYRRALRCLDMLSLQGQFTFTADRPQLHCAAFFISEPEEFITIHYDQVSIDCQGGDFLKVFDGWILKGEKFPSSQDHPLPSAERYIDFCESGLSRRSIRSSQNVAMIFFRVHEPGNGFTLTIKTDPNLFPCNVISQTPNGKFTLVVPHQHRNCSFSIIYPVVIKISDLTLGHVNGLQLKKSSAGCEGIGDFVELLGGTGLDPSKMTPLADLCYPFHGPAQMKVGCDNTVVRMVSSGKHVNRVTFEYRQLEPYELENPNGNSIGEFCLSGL
# [3] = molecular target: T2, Corticotropin-releasing factor receptor 2/Corticotropin-releasing factor-binding protein; experiment: Dose Response confirmation of uHTS hits for small molecule antagonists of the CRF-binding protein and CRF-R2 receptor complex.; assay type: functional; settings: read-out: IC50_Mean
# [4] = molecular target: T3, Replicative DNA helicase DnaB (Mycobacterium tuberculosis, UniProt P9WMR3); experiment: DnaB intein splicing inhibitors, dose response, biochemical, cell-free fluorescence (AID 449749); assay type: functional
# T3 sequence (P9WMR3 whole entry): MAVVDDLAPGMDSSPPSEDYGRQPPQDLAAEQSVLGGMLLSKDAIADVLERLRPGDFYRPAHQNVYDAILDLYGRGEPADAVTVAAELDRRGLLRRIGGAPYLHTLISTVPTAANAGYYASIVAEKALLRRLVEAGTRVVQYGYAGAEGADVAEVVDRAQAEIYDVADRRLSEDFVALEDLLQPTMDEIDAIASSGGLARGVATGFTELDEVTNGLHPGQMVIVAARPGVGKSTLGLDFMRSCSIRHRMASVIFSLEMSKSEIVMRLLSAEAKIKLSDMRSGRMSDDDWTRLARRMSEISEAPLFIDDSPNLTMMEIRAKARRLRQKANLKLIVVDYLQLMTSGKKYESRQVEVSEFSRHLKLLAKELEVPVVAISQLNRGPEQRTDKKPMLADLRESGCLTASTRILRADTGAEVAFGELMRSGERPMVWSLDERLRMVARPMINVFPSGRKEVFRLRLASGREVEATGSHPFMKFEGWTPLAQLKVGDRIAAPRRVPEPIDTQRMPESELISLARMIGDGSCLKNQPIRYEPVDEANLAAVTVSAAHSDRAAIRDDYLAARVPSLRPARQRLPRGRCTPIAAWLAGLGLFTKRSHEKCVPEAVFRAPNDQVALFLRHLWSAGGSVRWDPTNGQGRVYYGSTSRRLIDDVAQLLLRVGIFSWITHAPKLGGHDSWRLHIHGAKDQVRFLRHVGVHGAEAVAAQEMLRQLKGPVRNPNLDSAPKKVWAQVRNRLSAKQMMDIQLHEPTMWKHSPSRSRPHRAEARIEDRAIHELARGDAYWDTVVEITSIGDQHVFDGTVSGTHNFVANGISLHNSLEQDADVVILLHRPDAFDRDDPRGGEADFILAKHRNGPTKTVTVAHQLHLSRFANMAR
# Protein RecA = molecular target: T4, Protein RecA (Mycobacterium tuberculosis, UniProt P9WHJ3); experiment: Fluorescence Cell-Free Homogeneous Dose Retest to Identify Inhibitors of RecA-Intein Splicing Activity. [Related pubchem assays (depositor defined):AID2097, AID2223, AID489010, AID492950]; assay type: functional
# T4 sequence (P9WHJ3 whole entry): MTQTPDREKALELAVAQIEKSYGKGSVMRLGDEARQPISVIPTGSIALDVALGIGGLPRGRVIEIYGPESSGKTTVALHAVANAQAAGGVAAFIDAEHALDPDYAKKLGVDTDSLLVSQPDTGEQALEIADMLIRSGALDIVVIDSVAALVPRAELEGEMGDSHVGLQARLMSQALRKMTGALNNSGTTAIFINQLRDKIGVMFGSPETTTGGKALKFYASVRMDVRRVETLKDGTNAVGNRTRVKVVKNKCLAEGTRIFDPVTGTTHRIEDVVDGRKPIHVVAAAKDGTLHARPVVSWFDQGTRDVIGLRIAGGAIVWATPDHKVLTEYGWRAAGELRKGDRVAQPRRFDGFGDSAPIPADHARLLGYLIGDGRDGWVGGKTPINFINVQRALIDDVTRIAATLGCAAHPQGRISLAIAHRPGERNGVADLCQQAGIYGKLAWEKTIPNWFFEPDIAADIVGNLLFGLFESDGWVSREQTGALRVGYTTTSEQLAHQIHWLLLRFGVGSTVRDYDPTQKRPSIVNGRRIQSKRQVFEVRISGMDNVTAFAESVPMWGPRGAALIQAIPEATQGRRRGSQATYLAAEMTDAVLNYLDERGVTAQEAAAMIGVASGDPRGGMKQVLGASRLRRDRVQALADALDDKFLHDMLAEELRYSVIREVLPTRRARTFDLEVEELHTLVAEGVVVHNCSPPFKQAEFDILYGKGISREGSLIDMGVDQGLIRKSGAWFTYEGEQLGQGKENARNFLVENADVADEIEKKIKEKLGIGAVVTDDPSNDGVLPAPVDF
# INS1 = experiment: beta cell apoptosis inhibitors, cytokine rescue, dose response, luminescence, retest (AID 449756); assay type: functional, cell-based; settings: Rattus norvegicus;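 note: cell death triggered by IL-1 beta plus TNF-alpha plus IFN-gamma mixture; protective hits raise ATP signal compared with cytokine alone wells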
# Streptococcus = experiment: Group A Streptococcus viability loss, dose response, counter-screen for streptokinase expression inhibitor project, luminescence, BacTiterGlo (AID 1915); assay type: functional, organism-based;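 note: potency for reduction of bacterial viability or growth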
# [5] = system: Streptococcus sp. 'group A'; experiment: growth inhibition of control SK(-) GAS strain, dose response, counter-screen for streptokinase expression inhibitor project, luminescence, kanamycin, BacTiterGlo, confirmation (AID 1900); assay type: functional, organism-based
# [6] = cytotoxicity toward NIH3T3 fibroblasts, dose response, counter-screen, cell-based, ATP luminescence, mouse fibroblasts (AID 2010); assay type: functional;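 note: cells exposed to compound for about 90 hours before reading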
# [7] = inhibitors of intracellular T. cruzi replication, confirmation, NIH3T3 host cells, beta-gal luminescence (AID 2044); assay type: functional, cell-based;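 note: intracellular parasites grown in NIH/3T3 mouse fibroblasts as host cells; luminescent beta-galactosidase reporter signal from transgenic T. cruzi replicating inside host cells; inhibitors lower the luminescence signal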
smiles,measurement,setting,value
O=C(NC(=S)N1CCN(C/C=C/c2ccccc2)CC1)c1ccc(Cl)nc1,EC50,[1],> 260 µM (inactive)
CCOC(=O)NNC(=O)c1[nH]c2ccc(Br)cc2c1-c1ccccc1,EC50,[2],> 53 µM (inactive)
same,IC50,[3],> 47.1 µM (inactive)
Fc1ccc(C2NC(S)=NC3=C2N2CCC3CC2)cc1 (stereo unspecified),EC50,[1],> 260 µM (inactive)
CC(NC(=O)CCCN1C(=O)c2ccccc2C1=O)c1ccc2c(c1)CCCC2 (stereo unspecified),EC50,[1],> 260 µM (inactive)
O=c1c2cc(N3CCOCC3)ccc2[nH]c(=S)n1Cc1ccccn1,EC50,[1],> 260 µM (inactive)
COc1ccc(C(CC(=O)O)c2ccc3c(c2)OCO3)cc1 (stereo unspecified),EC50,[2],> 53 µM (inactive)
same,IC50,[3],> 47.1 µM (inactive)
COc1cc(CC(=O)NCc2cccs2)cc(OC)c1OC,EC50,[2],> 53 µM (inactive)
same,IC50,[3],> 47.1 µM (inactive)
O=c1c2ccccc2nc2n1CCS2(=O)=O,AC50,[4],37.2 µM (active)
same,EC50,Protein RecA,12.9 µM (active)
CC(C)c1n[nH]c2c1C(Cc1ccccc1)C(C#N)=C(N)O2 (stereo unspecified),AC50,[4],38.7 µM (active)
same,EC50,Protein RecA,8.67 µM (active)
Cc1n[nH]c2c1C1(CCN(C(=O)OCc3ccccc3)CC1)C(C#N)=C(N)O2,AC50,[4],13.5 µM (active)
same,EC50,Protein RecA,1.59 µM (active)
O=[N+]([O-])c1ccc(Oc2cccc(Br)c2)c2ccncc12,AC50,[4],> 380 µM (inactive)
same,EC50,Protein RecA,1.17 µM (active)
Cc1ccccc1Cn1ccc(=NCc2ccccc2)cc1,AC50,INS1,> 260 µM (inactive)
Cn1cnc([N+](=O)[O-])c1Sc1nnc(-c2cccnc2)n1C,AC50,[4],38.1 µM (active)
same,EC50,Protein RecA,13.3 µM (active)
Cc1oc(-c2ccccc2Cl)nc1CN1C(=O)CN=C(c2ccccc2)c2ccccc21,EC50,[1],> 260 µM (inactive)
COc1cc(/C=C/C(=O)OCc2c(C)noc2C)ccc1OC(F)F,EC50,[1],> 260 µM (inactive)
COc1ccc(CN(C)C(=O)c2ccc(NS(=O)(=O)c3ccc(F)cc3)cc2)c(OC)c1OC,AC50,INS1,> 260 µM (inactive)
N=C(CN1CCCCC1)NS(=O)(=O)c1cc(Cl)cc(Cl)c1,EC50,[2],> 53 µM (inactive)
same,IC50,[3],> 47.1 µM (inactive)
COc1ccc(CCNc2oc(-c3ccccc3OC)nc2C#N)cc1,EC50,[1],> 260 µM (inactive)
CCOC(=O)C(NCc1ccccn1)(NC(=O)c1cccnc1)C(F)(F)F (stereo unspecified),EC50,[2],> 53 µM (inactive)
same,IC50,[3],> 47.1 µM (inactive)
O=C(Nc1cc([N+](=O)[O-])ccc1O)c1cccc(NC(=O)c2ccco2)c1,EC50,Streptococcus,6.8 µM (active)
same,EC50,[5],5.58 µM (active)
Cc1cc(C)cc(NC(=O)C2CCCN(c3nccc(C)n3)C2)c1 (stereo unspecified),EC50,[2],> 53 µM (inactive)
same,IC50,[3],> 47.1 µM (inactive)
Cn1c(-c2ccc(-c3ccccc3)cc2)c[nH]c1=S,EC50,[2],> 53 µM (inactive)
same,IC50,[3],> 47.1 µM (inactive)
COc1ccc(Cl)cc1NC(=O)c1ccoc1C,EC50,[2],> 53 µM (inactive)
same,IC50,[3],> 47.1 µM (inactive)
Cc1cc2[nH]ncc2cc1NC(=S)NC(=O)c1ccccc1,AC50,[4],178 µM (active)
same,EC50,Protein RecA,> 380 µM (inactive)
Nc1ccc2nc(N3CCOCC3)sc2c1,EC50,[6],5.16 µM (active)
same,EC50,[7],1.96 µM (active)
same,AC50,[4],93.7 µM (active)
same,EC50,Protein RecA,23.7 µM (active)
COC(=O)Nc1ccc(S(=O)(=O)N2CCC(C(=O)N3CCCC(C)C3)CC2)cc1 (stereo unspecified),EC50,[1],> 260 µM (inactive)
Cc1ccc(N2C(=O)SC(N(CC(=O)O)c3ccc(C)cc3)C2=O)cc1 (stereo unspecified),EC50,[1],> 260 µM (inactive)
COc1cc(CNC2CCCC2)cc(OC)c1,EC50,[1],> 260 µM (inactive)
CN(C)C(=O)c1ccc(=O)n(Cc2ccc(Cl)cc2Cl)c1,EC50,[1],> 260 µM (inactive)
O=C(O)c1ccc(N(Cc2ccccc2)S(=O)(=O)c2ccccc2)cc1,EC50,[1],> 260 µM (inactive)
NCCCCCc1nnc(SC/C=C/c2ccccc2)o1,EC50,[1],> 260 µM (inactive)
C#CCOCCOCCOCCNc1nc(N2CCN(C(=O)Cn3cc(CCO)nn3)CC2)nc(N2CCN(C(=O)[C@H](CCCCN)n3cc(CC(C)O)nn3)CC2)n1 (stereo partly specified),EC50,[2],> 53 µM (inactive)
same,IC50,[3],> 47.1 µM (inactive)
CCC1=Nc2cc(C(=O)NCCN3CCCC3)ccc2Sc2ccccc21,AC50,[4],> 380 µM (inactive)
same,EC50,Protein RecA,> 380 µM (inactive)
O=c1oc(CCO)cc2ccc(Br)cc12,EC50,[2],> 53 µM (inactive)
same,IC50,[3],> 47.1 µM (inactive)
COc1cccc(N(CC(=O)N2CCc3ccccc3C2)S(C)(=O)=O)c1,EC50,[1],> 260 µM (inactive)
CC1=NNC(=O)C1C(c1ccc(F)cc1)C(C#N)C#N (stereo unspecified),AC50,[4],7.09 µM (active)
same,EC50,Protein RecA,2.83 µM (active)
Cc1n[nH]c(=S)n(/N=C/c2cccs2)c1=O,EC50,[2],> 53 µM (inactive)
same,IC50,[3],> 47.1 µM (inactive)
Cn1cccc1/C=N/NC(=O)Cc1cccs1,AC50,INS1,> 260 µM (inactive)
